Reference: the NIST ThermoML archive (doi:10.1021/je3007474)
± gives the expanded uncertainty stated by the source.

Experiment: xn = mol fraction of the nth substance listed
Settings: 101 kPa, Liquid; for viscosity: Falling or rolling sphere viscometry; for mass density: Vibrating tube method

CCCCn1cc[n+](C)c1C.F[B-](F)(F)F [1-butyl-2,3-dimethylimidazolium tetrafluoroborate] + CC#N
Settings | mass density [kg/m3] | viscosity [mPa·s]
298.15 K, x1 = 0.1118 | 919.74 ± 0.17 | 1.045 ± 0.013
298.15 K, x1 = 0.1536 | 957.71 ± 0.15 | –
298.15 K, x1 = 0.2247 | 1008.5 ± 0.14 | 2.637 ± 0.034
298.15 K, x1 = 0.3784 | 1079.62 ± 0.18 | 8.933 ± 0.12
298.15 K, x1 = 0.4601 | 1104.79 ± 0.16 | –
298.15 K, x1 = 0.5515 | 1127.21 ± 0.15 | 32.3 ± 0.41
298.15 K, x1 = 0.666 | 1149.45 ± 0.13 | 67.72 ± 0.96
298.15 K, x1 = 0.7581 | 1163.71 ± 0.12 | 143.9 ± 5.1
298.15 K, x1 = 0.8423 | 1174.52 ± 0.12 | 241.4 ± 13
298.15 K, x1 = 1 | 1193.19 ± 0.12 | 650 ± 56
303.15 K, x1 = 0.1118 | 915.06 ± 0.17 | 0.982 ± 0.012
303.15 K, x1 = 0.1536 | 953.22 ± 0.15 | –
303.15 K, x1 = 0.2247 | 1004.26 ± 0.14 | 2.438 ± 0.031
303.15 K, x1 = 0.3784 | 1075.69 ± 0.19 | 7.746 ± 0.1
303.15 K, x1 = 0.4601 | 1100.98 ± 0.16 | –
303.15 K, x1 = 0.5515 | 1123.51 ± 0.15 | 26.37 ± 0.33
303.15 K, x1 = 0.666 | 1145.88 ± 0.13 | 52.92 ± 0.56
303.15 K, x1 = 0.7581 | 1160.23 ± 0.12 | 108.2 ± 2.8
303.15 K, x1 = 0.8423 | 1171.09 ± 0.12 | 176.3 ± 7.5
303.15 K, x1 = 1 | 1189.8 ± 0.12 | 447 ± 33
313.15 K, x1 = 0.1118 | 905.7 ± 0.17 | 0.873 ± 0.011
313.15 K, x1 = 0.1536 | 944.25 ± 0.15 | –
313.15 K, x1 = 0.2247 | 995.79 ± 0.14 | 2.071 ± 0.026
313.15 K, x1 = 0.3784 | 1067.89 ± 0.19 | 5.997 ± 0.077
313.15 K, x1 = 0.4601 | 1093.41 ± 0.16 | –
313.15 K, x1 = 0.5515 | 1116.15 ± 0.14 | 18.33 ± 0.23
313.15 K, x1 = 0.666 | 1138.75 ± 0.12 | 34.34 ± 0.43
313.15 K, x1 = 0.7581 | 1153.24 ± 0.12 | 65.14 ± 0.85
313.15 K, x1 = 0.8423 | 1164.22 ± 0.11 | 102.2 ± 2.5
313.15 K, x1 = 1 | 1183.02 ± 0.11 | 232.9 ± 12
323.15 K, x1 = 0.1118 | 896.31 ± 0.18 | 0.783 ± 0.01
323.15 K, x1 = 0.1536 | 935.27 ± 0.15 | –
323.15 K, x1 = 0.2247 | 987.34 ± 0.14 | 1.781 ± 0.022
323.15 K, x1 = 0.3784 | 1060.12 ± 0.19 | 4.784 ± 0.061
323.15 K, x1 = 0.4601 | 1085.88 ± 0.16 | –
323.15 K, x1 = 0.5515 | 1108.85 ± 0.14 | 13.36 ± 0.17
323.15 K, x1 = 0.666 | 1131.67 ± 0.12 | 23.63 ± 0.3
323.15 K, x1 = 0.7581 | 1146.32 ± 0.11 | 42.26 ± 0.52
323.15 K, x1 = 0.8423 | 1157.4 ± 0.11 | 63.15 ± 0.79
323.15 K, x1 = 1 | 1176.38 ± 0.11 | 132.8 ± 4.4
333.15 K, x1 = 0.1118 | 886.87 ± 0.18 | 0.714 ± 0.009
333.15 K, x1 = 0.1536 | 926.27 ± 0.16 | –
333.15 K, x1 = 0.2247 | 978.89 ± 0.14 | 1.551 ± 0.02
333.15 K, x1 = 0.3784 | 1052.37 ± 0.19 | 3.914 ± 0.05
333.15 K, x1 = 0.4601 | 1078.37 ± 0.16 | –
333.15 K, x1 = 0.5515 | 1101.56 ± 0.14 | 10.11 ± 0.13
333.15 K, x1 = 0.666 | 1124.62 ± 0.12 | 17.06 ± 0.21
333.15 K, x1 = 0.7581 | 1139.41 ± 0.11 | 28.89 ± 0.36
333.15 K, x1 = 0.8423 | 1150.59 ± 0.11 | 41.76 ± 0.52
333.15 K, x1 = 1 | 1169.82 ± 0.11 | 81.53 ± 1.5
343.15 K, x1 = 0.1118 | 877.39 ± 0.18 | 0.572 ± 0.007
343.15 K, x1 = 0.1536 | 917.25 ± 0.16 | –
343.15 K, x1 = 0.2247 | 970.44 ± 0.15 | 1.369 ± 0.017
343.15 K, x1 = 0.3784 | 1044.64 ± 0.18 | 3.264 ± 0.041
343.15 K, x1 = 0.4601 | 1070.89 ± 0.16 | –
343.15 K, x1 = 0.5515 | 1094.31 ± 0.14 | 7.897 ± 0.099
343.15 K, x1 = 0.666 | 1117.6 ± 0.12 | 12.79 ± 0.16
343.15 K, x1 = 0.7581 | 1132.51 ± 0.11 | 20.7 ± 0.26
343.15 K, x1 = 0.8423 | 1143.79 ± 0.11 | 30 ± 0.37
343.15 K, x1 = 1 | 1163.26 ± 0.11 | 53.99 ± 0.56

CCCCn1cc[n+](C)c1C.F[B-](F)(F)F [1-butyl-2,3-dimethylimidazolium tetrafluoroborate] + C[S+](C)[O-]
Settings | mass density [kg/m3] | viscosity [mPa·s]
298.15 K, x1 = 0.138 | 1128.27 ± 0.09 | 5.197 ± 0.064
298.15 K, x1 = 0.2292 | 1142.83 ± 0.1 | 9.384 ± 0.12
298.15 K, x1 = 0.3151 | 1153.4 ± 0.1 | 16.2 ± 0.2
298.15 K, x1 = 0.4079 | 1162.44 ± 0.11 | 28.31 ± 0.36
298.15 K, x1 = 0.5334 | 1172.17 ± 0.11 | 60.17 ± 0.72
298.15 K, x1 = 0.6374 | 1178.33 ± 0.11 | 108.3 ± 2.8
298.15 K, x1 = 0.7004 | 1181.74 ± 0.11 | 160.1 ± 6.3
298.15 K, x1 = 0.7952 | 1185.94 ± 0.11 | –
298.15 K, x1 = 0.8785 | 1189.03 ± 0.12 | 370.4 ± 25
298.15 K, x1 = 1 | 1193.19 ± 0.12 | 650 ± 56
303.15 K, x1 = 0.138 | 1123.85 ± 0.09 | 4.594 ± 0.057
303.15 K, x1 = 0.2292 | 1138.65 ± 0.1 | 8.077 ± 0.1
303.15 K, x1 = 0.3151 | 1149.37 ± 0.1 | 13.58 ± 0.17
303.15 K, x1 = 0.4079 | 1158.58 ± 0.11 | 23.32 ± 0.29
303.15 K, x1 = 0.5334 | 1168.48 ± 0.11 | 47.09 ± 0.59
303.15 K, x1 = 0.6374 | 1174.75 ± 0.11 | 82.19 ± 1.5
303.15 K, x1 = 0.7004 | 1178.22 ± 0.11 | 119.4 ± 3.5
303.15 K, x1 = 0.7952 | 1182.45 ± 0.11 | –
303.15 K, x1 = 0.8785 | 1185.53 ± 0.11 | 263.2 ± 15
303.15 K, x1 = 1 | 1189.8 ± 0.12 | 447 ± 33
313.15 K, x1 = 0.138 | 1115.07 ± 0.09 | 3.654 ± 0.045
313.15 K, x1 = 0.2292 | 1130.35 ± 0.09 | 6.142 ± 0.076
313.15 K, x1 = 0.3151 | 1141.4 ± 0.1 | 9.873 ± 0.12
313.15 K, x1 = 0.4079 | 1150.89 ± 0.1 | 15.99 ± 0.2
313.15 K, x1 = 0.5334 | 1161.12 ± 0.11 | 30.51 ± 0.38
313.15 K, x1 = 0.6374 | 1167.61 ± 0.11 | 50.32 ± 0.51
313.15 K, x1 = 0.7004 | 1171.2 ± 0.11 | 70.58 ± 1
313.15 K, x1 = 0.7952 | 1175.55 ± 0.11 | –
313.15 K, x1 = 0.8785 | 1178.68 ± 0.11 | 144.9 ± 5.2
313.15 K, x1 = 1 | 1183.02 ± 0.11 | 232.9 ± 12
323.15 K, x1 = 0.138 | 1106.3 ± 0.08 | 2.981 ± 0.037
323.15 K, x1 = 0.2292 | 1122.07 ± 0.09 | 4.831 ± 0.06
323.15 K, x1 = 0.3151 | 1133.47 ± 0.1 | 7.481 ± 0.093
323.15 K, x1 = 0.4079 | 1143.24 ± 0.1 | 11.64 ± 0.15
323.15 K, x1 = 0.5334 | 1153.77 ± 0.1 | 20.96 ± 0.26
323.15 K, x1 = 0.6374 | 1160.48 ± 0.1 | 33.05 ± 0.41
323.15 K, x1 = 0.7004 | 1164.2 ± 0.11 | 44.88 ± 0.56
323.15 K, x1 = 0.7952 | 1168.71 ± 0.11 | –
323.15 K, x1 = 0.8785 | 1171.96 ± 0.11 | 86.55 ± 1.7
323.15 K, x1 = 1 | 1176.38 ± 0.11 | 132.8 ± 4.4
333.15 K, x1 = 0.138 | 1097.56 ± 0.08 | 2.49 ± 0.031
333.15 K, x1 = 0.2292 | 1113.83 ± 0.09 | 3.906 ± 0.048
333.15 K, x1 = 0.3151 | 1125.56 ± 0.09 | 5.851 ± 0.072
333.15 K, x1 = 0.4079 | 1135.62 ± 0.1 | 8.806 ± 0.11
333.15 K, x1 = 0.5334 | 1146.46 ± 0.1 | 15.18 ± 0.19
333.15 K, x1 = 0.6374 | 1153.38 ± 0.1 | 22.96 ± 0.28
333.15 K, x1 = 0.7004 | 1157.22 ± 0.1 | 30.3 ± 0.37
333.15 K, x1 = 0.7952 | 1161.88 ± 0.1 | –
333.15 K, x1 = 0.8785 | 1165.23 ± 0.11 | 55.64 ± 0.59
333.15 K, x1 = 1 | 1169.82 ± 0.11 | 81.53 ± 1.5
343.15 K, x1 = 0.138 | 1088.84 ± 0.08 | 2.115 ± 0.026
343.15 K, x1 = 0.2292 | 1105.61 ± 0.09 | 3.23 ± 0.04
343.15 K, x1 = 0.3151 | 1117.7 ± 0.09 | 4.708 ± 0.058
343.15 K, x1 = 0.4079 | 1128.03 ± 0.1 | 6.868 ± 0.085
343.15 K, x1 = 0.5334 | 1139.19 ± 0.1 | 11.46 ± 0.14
343.15 K, x1 = 0.6374 | 1146.31 ± 0.1 | 16.7 ± 0.21
343.15 K, x1 = 0.7004 | 1150.26 ± 0.1 | 21.53 ± 0.27
343.15 K, x1 = 0.7952 | 1155.06 ± 0.1 | –
343.15 K, x1 = 0.8785 | 1158.52 ± 0.1 | 37.74 ± 0.46
343.15 K, x1 = 1 | 1163.26 ± 0.11 | 53.99 ± 0.56
353.15 K, x1 = 0.138 | 1080.12 ± 0.08 | 1.826 ± 0.022
353.15 K, x1 = 0.2292 | 1097.41 ± 0.08 | 2.724 ± 0.034
353.15 K, x1 = 0.3151 | 1109.86 ± 0.09 | 3.873 ± 0.048
353.15 K, x1 = 0.4079 | 1120.49 ± 0.09 | 5.501 ± 0.068
353.15 K, x1 = 0.5334 | 1131.96 ± 0.1 | 8.897 ± 0.11
353.15 K, x1 = 0.6374 | 1139.27 ± 0.1 | 12.73 ± 0.16
353.15 K, x1 = 0.7004 | 1143.34 ± 0.1 | 16.03 ± 0.2
353.15 K, x1 = 0.7952 | 1148.27 ± 0.1 | –
353.15 K, x1 = 0.8785 | 1151.83 ± 0.1 | 26.75 ± 0.33
353.15 K, x1 = 1 | 1156.71 ± 0.1 | 37.13 ± 0.46
